The text below walks through data of patent US20120156137A1, “COMPOSITION FOR TREATMENT OF ATOPIC DERMATITIS COMPRISING GLUCOSAMINE AND DERIVATIVES THEREOF AND A METHOD FOR TREATMENT OF ATOPIC DERMATITIS USING THEM” (priority 2006, published 2012).

Assay [1] relates to TPA-induced mouse ear edema model. Nature of the assay: Anti-inflammatory activity of glucosamine orally administered to the TPA-induced mouse ear edema model. In kind it is in vivo. The conditions noted are these: male ICR mice; oral 5, 10 or 20 mg/kg glucosamine 15 min and 6 hrs after TPA; read 24 hrs after TPA. The protocol:
Ear edema was induced in mice using 12-O-tetradecanoylphorbol 13-acetate (TPA), as follows. TPA was prepared at 2.5[…]/20[…] in acetone. ICR mice were prepared one week before this test and allowed free access to food and water in order to minimize the stress of transport. 20[…] of the TPA solution was applied onto right ears of male ICR mice (7 weeks old). After 24 hrs, mice were sacrificed by cervical dislocation, and the right ears were punched using a 6-mm biopsy punch. The ear punches were weighed using a microbalance, finely teased, and subjected to a myeloperoxidase (MPO) assay. Thirty five male ICR mice (7 weeks old, weighing 25-32 g) were divided into seven groups, each of which consisted of five mice. Experimental animals were allowed free access to food and water for one week in order to minimize the stress of transport. Glucosamine and a control drug were diluted in sterile physiological saline. Group 1 was not treated with TPA or any drug. Group 2 was treated with TPA alone on the right ear skin thereof. Group 3 was topically applied with TPA, and then orally administered through a sonde with 0.5 ml of glucosamine in sterile physiological saline 15 min and 6 hrs after TPA application. […]

The next assay has as its system transglutaminase. The following applies: as described in Korean Pat. Application No. 10-2006-56942; cited from earlier work.
The test system of a further assay is atopy patients. Nature of the assay: Clinical test for therapeutic effects of glucosamine on atopy. In kind it is in vivo, human. The following applies: twenty atopy patients. The protocol:
A clinical test was performed with twenty atopy patients in order to determine whether glucosamine has therapeutic effects on atopy in practice. The clinical test was conducted by the Department of Dermatology, Dongguk University Hospital (attending physician: A Y Lee; the clinical test was approved by an IRB of Dongguk University Hospital). Twenty atopy patients were dosed with glucosamine in the form of a tablet and a cream. In brief, glucosamine was orally administered at a daily dose of 500 mg for a period of two weeks. The cream (5% glucosamine) was topically applied to a desired site of the skin twice a day for a period of four weeks.

For assay [2], the system named is TPA-induced mouse ear edema model. Nature of the assay: Anti-inflammatory activity of glucosamine topically applied to the TPA-induced mouse ear edema model. In kind it is in vivo. The conditions noted are these: male ICR mice; topical 0.5%, 1% or 2% glucosamine 15 min and 6 hrs after TPA; read 24 hrs after TPA. The protocol:
Ear edema was induced in mice using 12-O-tetradecanoylphorbol 13-acetate (TPA), as follows. TPA was prepared at 2.5[…]/20[…] in acetone. ICR mice were prepared one week before this test and allowed free access to food and water in order to minimize the stress of transport. 20[…] of the TPA solution was applied onto right ears of male ICR mice (7 weeks old). After 24 hrs, mice were sacrificed by cervical dislocation, and the right ears were punched using a 6-mm biopsy punch. The ear punches were weighed using a microbalance, finely teased, and subjected to a myeloperoxidase (MPO) assay. Thirty male ICR mice (7 weeks old, weighing 25-32 g) were divided into six groups, each of which consisted of five mice. Experimental animals were allowed free access to food and water for one week in order to minimize the stress of transport. Glucos amine and a control drug were diluted in sterile distilled water and then diluted 1:9 in acetone. Group 1 was not treated with TPA or any drug. Group 2 was treated with TPA alone on the right ear skin thereof. Group 3 was topically treated with TPA, and then with 20[…] of 0.5% glucosamine in sterile distilled water/acetone (1:9) 15 min and 6 hrs after TPA application. According to the same procedure as in Group 3, Group 4 was topically treated with 1% glucosamine, and Group 5 with 2% glucosamine. […]

Turning to `N[C@H]1C(O)O[C@H](CO)[C@@H](O)[C@@H]1O` (some centres unmarked) [glucosamine], the “inhibition of acute inflammation (ear punch weight and MPO activity, FIGS. 3 and 4)” value in assay [1] is reported as “inhibited acute inflammation regardless of the concentration thereof”. The “inhibitory activity toward transglutaminase” value with transglutaminase is “has inhibitory activity toward transglutaminase”. Besides, the “therapeutic effects on atopy, external use (FIG. 5)” value in the assay with atopy patients (cream (5% glucosamine) topically twice a day for four weeks) was “significant therapeutic effects on atopy”. Moreover, the “therapeutic effects on atopy, oral administration (FIG. 5)” value with atopy patients (tablet, oral daily dose 500 mg for two weeks) was “significant therapeutic effects on atopy”. The “inhibition of acute inflammation (ear punch weight and MPO activity, FIGS. 1 and 2)” value in assay [2] is reported as “inhibit acute inflammation regardless of concentrations thereof”.
